# Measurements published in the NIST ThermoML archive (doi:10.1016/j.jct.2010.08.010).
# Numbers after ± are expanded uncertainties.
# Details: Liquid, Buoyancy - hydrostatic balance with magnetic suspension - one sinker
smiles,measurement,setting,value
Cc1ccccc1 [toluene],mass density,"233.15 K, 101.25 kPa",922.207 ± 0.21 kg/m3
same,mass density,"233.15 K, 1055.6 kPa",922.722 ± 0.21 kg/m3
same,mass density,"233.15 K, 1861.3 kPa",923.156 ± 0.21 kg/m3
same,mass density,"233.15 K, 3871.1 kPa",924.223 ± 0.21 kg/m3
same,mass density,"233.15 K, 5873.9 kPa",925.287 ± 0.22 kg/m3
same,mass density,"233.15 K, 8031.1 kPa",926.415 ± 0.22 kg/m3
same,mass density,"233.15 K, 9906.5 kPa",927.392 ± 0.22 kg/m3
same,mass density,"233.15 K, 11973 kPa",928.445 ± 0.22 kg/m3
same,mass density,"233.15 K, 13947 kPa",929.451 ± 0.22 kg/m3
same,mass density,"233.15 K, 15971 kPa",930.461 ± 0.22 kg/m3
same,mass density,"233.15 K, 18029 kPa",931.487 ± 0.22 kg/m3
same,mass density,"233.15 K, 19921 kPa",932.422 ± 0.22 kg/m3
same,mass density,"233.15 K, 22000 kPa",933.432 ± 0.22 kg/m3
same,mass density,"233.15 K, 24029 kPa",934.411 ± 0.22 kg/m3
same,mass density,"233.15 K, 25833 kPa",935.279 ± 0.22 kg/m3
same,mass density,"233.15 K, 27876 kPa",936.25 ± 0.22 kg/m3
same,mass density,"233.15 K, 29776 kPa",937.146 ± 0.22 kg/m3
same,mass density,"253.15 K, 102.01 kPa",903.705 ± 0.21 kg/m3
same,mass density,"253.15 K, 1102.6 kPa",904.316 ± 0.21 kg/m3
same,mass density,"253.15 K, 1837.1 kPa",904.762 ± 0.21 kg/m3
same,mass density,"253.15 K, 3915.8 kPa",906 ± 0.21 kg/m3
same,mass density,"253.15 K, 6024.3 kPa",907.237 ± 0.21 kg/m3
same,mass density,"253.15 K, 7905.8 kPa",908.333 ± 0.21 kg/m3
same,mass density,"253.15 K, 9884.5 kPa",909.467 ± 0.21 kg/m3
same,mass density,"253.15 K, 11995 kPa",910.665 ± 0.21 kg/m3
same,mass density,"253.15 K, 13975 kPa",911.777 ± 0.21 kg/m3
same,mass density,"253.15 K, 15951 kPa",912.877 ± 0.21 kg/m3
same,mass density,"253.15 K, 17978 kPa",913.989 ± 0.21 kg/m3
same,mass density,"253.15 K, 20022 kPa",915.098 ± 0.21 kg/m3
same,mass density,"253.15 K, 21921 kPa",916.119 ± 0.21 kg/m3
same,mass density,"253.15 K, 24088 kPa",917.274 ± 0.21 kg/m3
same,mass density,"253.15 K, 25990 kPa",918.275 ± 0.21 kg/m3
same,mass density,"253.15 K, 27827 kPa",919.23 ± 0.21 kg/m3
same,mass density,"253.15 K, 29746 kPa",920.223 ± 0.21 kg/m3
same,mass density,"273.15 K, 97.87 kPa",885.25 ± 0.21 kg/m3
same,mass density,"273.15 K, 1027.8 kPa",885.881 ± 0.21 kg/m3
same,mass density,"273.15 K, 1996.9 kPa",886.534 ± 0.21 kg/m3
same,mass density,"273.15 K, 4081.7 kPa",887.926 ± 0.21 kg/m3
same,mass density,"273.15 K, 5913.4 kPa",889.129 ± 0.21 kg/m3
same,mass density,"273.15 K, 8004.2 kPa",890.482 ± 0.21 kg/m3
same,mass density,"273.15 K, 9932.4 kPa",891.714 ± 0.21 kg/m3
same,mass density,"273.15 K, 11880 kPa",892.948 ± 0.21 kg/m3
same,mass density,"273.15 K, 13888 kPa",894.195 ± 0.21 kg/m3
same,mass density,"273.15 K, 16098 kPa",895.56 ± 0.21 kg/m3
same,mass density,"273.15 K, 18099 kPa",896.771 ± 0.21 kg/m3
same,mass density,"273.15 K, 19969 kPa",897.897 ± 0.21 kg/m3
same,mass density,"273.15 K, 21860 kPa",899.011 ± 0.21 kg/m3
same,mass density,"273.15 K, 23914 kPa",900.215 ± 0.21 kg/m3
same,mass density,"273.15 K, 25980 kPa",901.41 ± 0.21 kg/m3
same,mass density,"273.15 K, 28070 kPa",902.607 ± 0.21 kg/m3
same,mass density,"273.15 K, 30123 kPa",903.766 ± 0.21 kg/m3
same,mass density,"293.15 K, 99.87 kPa",866.733 ± 0.2 kg/m3
same,mass density,"293.15 K, 101.56 kPa",866.808 ± 0.2 kg/m3
same,mass density,"293.15 K, 1103.1 kPa",867.572 ± 0.2 kg/m3
same,mass density,"293.15 K, 1127.8 kPa",867.518 ± 0.2 kg/m3
same,mass density,"293.15 K, 1967 kPa",868.206 ± 0.2 kg/m3
same,mass density,"293.15 K, 2003.6 kPa",868.257 ± 0.2 kg/m3
same,mass density,"293.15 K, 2021.4 kPa",868.196 ± 0.2 kg/m3
same,mass density,"293.15 K, 3955.9 kPa",869.643 ± 0.2 kg/m3
same,mass density,"293.15 K, 4003.3 kPa",869.731 ± 0.2 kg/m3
same,mass density,"293.15 K, 4004.5 kPa",869.753 ± 0.2 kg/m3
same,mass density,"293.15 K, 5995 kPa",871.216 ± 0.2 kg/m3
same,mass density,"293.15 K, 6031.6 kPa",871.224 ± 0.2 kg/m3
same,mass density,"293.15 K, 6107.1 kPa",871.23 ± 0.2 kg/m3
same,mass density,"293.15 K, 8032.8 kPa",872.623 ± 0.2 kg/m3
same,mass density,"293.15 K, 8164.1 kPa",872.766 ± 0.2 kg/m3
same,mass density,"293.15 K, 8180.3 kPa",872.799 ± 0.2 kg/m3
same,mass density,"293.15 K, 9984.8 kPa",874.014 ± 0.2 kg/m3
same,mass density,"293.15 K, 10008 kPa",874.081 ± 0.2 kg/m3
same,mass density,"293.15 K, 10026 kPa",874.114 ± 0.2 kg/m3
same,mass density,"293.15 K, 12005 kPa",875.479 ± 0.2 kg/m3
same,mass density,"293.15 K, 12114 kPa",875.512 ± 0.2 kg/m3
same,mass density,"293.15 K, 12190 kPa",875.631 ± 0.2 kg/m3
same,mass density,"293.15 K, 13874 kPa",876.778 ± 0.2 kg/m3
same,mass density,"293.15 K, 13947 kPa",876.779 ± 0.2 kg/m3
same,mass density,"293.15 K, 14049 kPa",876.921 ± 0.2 kg/m3
same,mass density,"293.15 K, 15849 kPa",878.081 ± 0.2 kg/m3
same,mass density,"293.15 K, 16015 kPa",878.24 ± 0.2 kg/m3
same,mass density,"293.15 K, 16153 kPa",878.35 ± 0.2 kg/m3
same,mass density,"293.15 K, 17969 kPa",879.506 ± 0.2 kg/m3
same,mass density,"293.15 K, 18022 kPa",879.584 ± 0.2 kg/m3
same,mass density,"293.15 K, 18058 kPa",879.633 ± 0.2 kg/m3
same,mass density,"293.15 K, 19969 kPa",880.88 ± 0.2 kg/m3
same,mass density,"293.15 K, 19990 kPa",880.848 ± 0.2 kg/m3
same,mass density,"293.15 K, 20012 kPa",880.925 ± 0.2 kg/m3
same,mass density,"293.15 K, 21348 kPa",881.783 ± 0.2 kg/m3
same,mass density,"293.15 K, 21972 kPa",882.207 ± 0.2 kg/m3
same,mass density,"293.15 K, 22236 kPa",882.319 ± 0.2 kg/m3
same,mass density,"293.15 K, 23457 kPa",883.155 ± 0.2 kg/m3
same,mass density,"293.15 K, 23981 kPa",883.441 ± 0.2 kg/m3
same,mass density,"293.15 K, 24105 kPa",883.586 ± 0.2 kg/m3
same,mass density,"293.15 K, 25005 kPa",884.147 ± 0.2 kg/m3
same,mass density,"293.15 K, 25908 kPa",884.671 ± 0.2 kg/m3
same,mass density,"293.15 K, 26066 kPa",884.837 ± 0.2 kg/m3
same,mass density,"293.15 K, 27839 kPa",885.935 ± 0.21 kg/m3
same,mass density,"293.15 K, 27990 kPa",885.976 ± 0.21 kg/m3
same,mass density,"293.15 K, 28091 kPa",886.104 ± 0.21 kg/m3
same,mass density,"293.15 K, 28372 kPa",886.271 ± 0.21 kg/m3
same,mass density,"293.15 K, 29914 kPa",887.239 ± 0.21 kg/m3
same,mass density,"293.15 K, 30011 kPa",887.242 ± 0.21 kg/m3
same,mass density,"313.15 K, 100.25 kPa",848.035 ± 0.2 kg/m3
same,mass density,"313.15 K, 1103.1 kPa",848.903 ± 0.2 kg/m3
same,mass density,"313.15 K, 2030.6 kPa",849.693 ± 0.2 kg/m3
same,mass density,"313.15 K, 3897.3 kPa",851.277 ± 0.2 kg/m3
same,mass density,"313.15 K, 6141.8 kPa",853.137 ± 0.2 kg/m3
same,mass density,"313.15 K, 7925.2 kPa",854.59 ± 0.2 kg/m3
same,mass density,"313.15 K, 9859 kPa",856.142 ± 0.2 kg/m3
same,mass density,"313.15 K, 11935 kPa",857.774 ± 0.2 kg/m3
same,mass density,"313.15 K, 13950 kPa",859.327 ± 0.2 kg/m3
same,mass density,"313.15 K, 16069 kPa",860.941 ± 0.2 kg/m3
same,mass density,"313.15 K, 17874 kPa",862.289 ± 0.2 kg/m3
same,mass density,"313.15 K, 19838 kPa",863.738 ± 0.2 kg/m3
same,mass density,"313.15 K, 22114 kPa",865.383 ± 0.2 kg/m3
same,mass density,"313.15 K, 24097 kPa",866.799 ± 0.2 kg/m3
same,mass density,"313.15 K, 25913 kPa",868.068 ± 0.2 kg/m3
same,mass density,"313.15 K, 28005 kPa",869.523 ± 0.2 kg/m3
same,mass density,"313.15 K, 29966 kPa",870.863 ± 0.2 kg/m3
same,mass density,"333.15 K, 98.96 kPa",829.055 ± 0.19 kg/m3
same,mass density,"333.15 K, 1101 kPa",830.042 ± 0.19 kg/m3
same,mass density,"333.15 K, 2134.3 kPa",831.05 ± 0.19 kg/m3
same,mass density,"333.15 K, 4003.8 kPa",832.841 ± 0.19 kg/m3
same,mass density,"333.15 K, 6105.7 kPa",834.814 ± 0.19 kg/m3
same,mass density,"333.15 K, 8005 kPa",836.556 ± 0.2 kg/m3
